Where two headings read alike, the source gives them in different places.
Experiments:
[1] = system: PBMC from EBV seropositive donors; format: cell-based, human; conditions: for IL-10 secretion by PBMC: EBV seropositive donors, peptides at 15 μg/ml, ELISA five days after stimulation; for gamma-IFN induction: control peptides of FIG. 6, seropositive donors
[2] = system: PBMC from EBV seropositive donors; assay: Suppression of proliferative and cytokine responses to mitogen, antigens and allergens; format: cell-based, human; conditions: three EBV seropositive donors, FIG. 6

| Substance | IL-10 secretion by PBMC [1] | effect on proliferative and gamma-IFN responses against recall antigen (PPD) [2] | also measured |
| --- | --- | --- | --- |
| FLGIVLFIFGCLLVLGIWIY [P22] | IL-10 inducing | inhibit proliferative responses | – |
| HDPLPQDPDNTDDNGPQDPD [P56] | – | – | gamma-IFN induction [1]: gamma-IFN inducing |
| ILIIFIFRRDLLCPLGALCI [P14] | shown to induce IL-10 | – | – |
| LFIFGCLLVLGIWIYLLEML [P23] | IL-10 inducing | inhibit proliferative responses | – |
| LILLIIALYLQQNWWTLLVD [P31] | IL-10 inducing | inhibit proliferative responses | – |
| LLFWLYIVMSDWTGGALLVL [P8] | shown to induce IL-10 | – | – |
| LLLLALLFWLYIVMSDWTGG [P7] | IL-10 inducing | inhibit proliferative responses | IL-10 secretion by PBMC ([1]; listed as peptide 7): one of many effective Tr1 IL-10 inducers |
| LLLMITLLLIALWNLHGQAL [P18] | IL-10 inducing | inhibit proliferative responses | – |
| LLWLLLFLAILIWMYYHGQR [P35] | IL-10 inducing | inhibit proliferative responses | – |
| PRGPPLSSSLGLALLLLLLA [P4] | IL-10 inducing | inhibit proliferative responses | percentage of EBV seropositive donors whose PBMC responded with IL-10 ([1]; 20 seropositive donors, peptide 15 μg/ml): 80% |
| QQNWWTLLVDLLWLLLFLAI [P33] | – | – | gamma-IFN induction [1]: gamma-IFN inducing |
| TIWQLLAFFLAFFLDLILLY [P28] | – | – | gamma-IFN induction [1]: gamma-IFN inducing |
| concanavalin A [Con A, reference compound] | – | – | response pattern to control mitogen / recall antigen ([1]; regardless of EBV serological status): induced responses dominated by proliferation and γ-IFN production |

Source: patent US20060057156A1, “Materials and methods for inductions of immune tolerance” (priority 2002, published 2006)
